{"source": "patent US11919939B2", "about": "“Beta-2-glycoprotein 1 derived peptide and use thereof for treating antiphospholipid syndrome” (Université de Genéve, priority 2017, dated 2024)", "molecules": {"B1": {"name": "domain I-II: recombinant fusion protein of β2GP1 sushi domain I and II, SEQ ID NO:37 (protein, listed as Homo sapiens)", "chain": "MISPVLILFSSFLCHVAIAGRTCPKPDDLPFSTVVPLKTFYEPGEEITYSCKPGYVSRGGMRKFICPLTGLWPINTLKCTPRVCPFAGILENGAVRYTTFEYPNTISFSCNTGFYLNGADSAKCTEEGKWSPELPVCA"}, "B2": {"name": "reduced β2GP1: reduced β2GP1 exposing the cryptic epitope (protein)", "chain": "GRTCPKPDDLPFSTVVPLKTFYEPGEEITYSCKPGYVSRGGMRKFICPLTGLWPINTLKCTPRVCPFAGILENGAVRYTTFEYPNTISFSCNTGFYLNGADSAKCTEEGKWSPELPVCAPIICPPPSIPTFATLRVYKPSAGNNSLYRDTAVFECLPQHAMFGNDTITCTTHGNWTKLPECREVKCPFPSRPDNGFVNYPAKPTLYYKDKATFGCHDGYSLDGPEEIECTKLGNWSAMPSCKASCKVPVKKATVVYQGERVKIQEKFKNGMLHGDKVSFFCKNKEKKCSYTEDAQCIDGTIEVPKCFKEHSSLAFWKTDASDVKPC"}, "B3": {"name": "β-2-Glycoprotein 1 (protein)", "chain": "B2 chain", "notes": "native β2GP1 purified from Human Plasma (Prospecbio)"}, "B4": {"name": "domain III-IV: recombinant fusion protein of β2GP1 domains III-IV (protein)", "chain": "PIICPPPSIPTFATLRVYKPSAGNNSLYRDTAVFECLPQHAMFGNDTITCTTHGNWTKLPECREVKCPFPSRPDNGFVNYPAKPTLYYKDKATFGCHDGYSLDGPEEIECTKLGNWSAMPSCKA", "modifications": "left off: small tags and cut ends"}, "B5": {"name": "domain V: recombinant fusion protein of β2GP1 domain V (protein)", "chain": "SCKVPVKKATVVYQGERVKIQEKFKNGMLHGDKVSFFCKNKEKKCSYTEDAQCIDGTIEVPKCFKEHSSLAFWKTDASDVKPC", "modifications": "left off: small tags and cut ends"}}, "key": {"[1]": {"system": "aPLA (patient-derived anti-β2GP1 antibodies)", "assay": "ELISA epitope mapping assay (aPLA binding to coated wells)", "design": "species or system human", "details": "wells coated with 10 μg/ml, aPLA from APS patients", "experimental": "IgG fractions were isolated from patients plasma with Protein-G CL-4B Sepharose (GE Healthcare) as previously described.^16 To assay for endotoxin and lipopeptide contamination of the IgG fractions, we depleted IgG from the aPLA and IgG-ctl (control) fractions by one step of affinity adsorption to Protein G-Sepharose and tested the remaining supernatant for its capacity for monocyte activation, as previously described^17. […] Each experiment was performed with at least 2 different preparations of IgG.\nMaxiSorp™ 96 well plates (Nunc) were coated with 10 μg/ml recombinant domains or peptides of β2GP1 prior to incubation with aPLA or control IgG. Secondary anti-human antibodies conjugated to IR800CW (Rockland) were used. Protein- or peptide-bound antibodies were detected and quantified by the Odyssey system (Li-Cor)."}, "[2]": {"system": "human monocytes activated with aPLA", "assay": "TNF production in human monocytes activated with aPLA", "assay_type": "cell-based", "details": "domains or peptides at 10 μg/ml", "experimental": "Monocytes were isolated from blood buffy coats of healthy volunteers as previously described.^14, 15 Monocyte purity routinely consisted of >90% CD14^+ cells, <1% CD3^+ cells, and <1% CD19^+ cells as assessed by flow cytometry. Cells were cultured in RPMI containing 10% Fetal Bovine Serum (FBS; Gibco BRL-Life Technologies). Each experiment was performed with at least three different preparations of monocytes.\nThe cells were treated with recombinant domains or peptides of β2GP1 at 10 μg/ml prior to incubation with aPLA or control IgG. Supernatants were collected for TNF quantification by ELISA (R&D System)."}, "[3]": {"system": "CD4+ T cells from APS patients", "assay": "T cell proliferation assay (CFSE dilution) on PBMC of APS patients", "assay_type": "cell-based, human", "design": "dose or concentration left out as unconfirmed", "details": "antigens for 10 days, flow cytometry", "experimental": "Peripheral blood mononuclear cells (PBMC) were isolated by density gradient centrifugation over Lymphoprep™ (Axis-Shield PoC) according to the manufacturer's instructions. T cell proliferation was evaluated by 5,6-carboxylfluorescein diacetate succinimidyl ester (CFSE) dilution assays (eBioscience). PBMC were stained with 0.1 μM CFSE (eBioscience), according to the manufacturer's instructions. Cells were cultured in the presence of antigens ([…]) for 10 days. T cell proliferation was assessed by flow cytometry evaluation of CFSE dilution. Proliferation was expressed as the cell division index (defined as the number of CFSE^low T cells cultured with antigen/number of CFSE^low T cells without antigen). In all cases, the culture medium consisted of X-VIVO 15 (Lonza, Walkersville, MD) supplemented with penicillin (100 U/ml) and streptomycin (0.1 mg/ml).\nSingle-cell suspensions stained with CFSE (eBioscience) were incubated with anti-CD32 (Biolegend) to prevent nonspecific antibody binding, then stained with antibodies against AF488-CD3, AF647-CD4, (BD Bioscience) major histocompatibility complex (MHC) class II tetramer (Benaroya Research Institute). Staining was assessed with ACCURI C6 flow cytometer (BD Biosciences)."}}, "note": "Entries after “also recorded” stand apart in the source; their conditions may differ.", "data": [{"molecule": "L8A: alanine scanning mutant of p1 (MISPVLIAFSSFLCHVAIAG; listed as Homo sapiens)", "values": [{"measurement": "aPLA binding to peptide- or domain-coated well", "setting": "[1]", "value": "significantly decreased the binding of aPLA"}]}, {"molecule": "F9A: alanine scanning mutant of p1 (MISPVLILASSFLCHVAIAG; listed as Homo sapiens)", "values": [{"measurement": "aPLA binding to peptide- or domain-coated well", "setting": "[1]", "value": "significantly decreased the binding of aPLA"}]}, {"molecule": "F64A: alanine scanning mutant of p6 (CKPGYVSRGGMRKAICPLTG; listed as Homo sapiens)", "values": [{"measurement": "aPLA binding to peptide- or domain-coated well", "setting": "[1]", "value": "involved in the binding of aPLA"}]}, {"molecule": "p3: 20-mer overlapping peptide of β2GP1 domain I-II, SEQ ID NO:39 (RTCPKPDDLPFSTVVPLKTF; listed as Homo sapiens)", "values": [{"measurement": "aPLA binding to peptide- or domain-coated well", "setting": "[1]", "value": "bound to p3 with a similar efficiency compared to p1"}]}, {"molecule": "C66A: alanine scanning mutant of p6 (CKPGYVSRGGMRKFIAPLTG; listed as Homo sapiens)", "values": [{"measurement": "aPLA binding to peptide- or domain-coated well", "setting": "[1]", "value": "involved in the binding of aPLA"}]}, {"molecule": "G59A: alanine scanning mutant of p6 (CKPGYVSRAGMRKFICPLTG; listed as Homo sapiens)", "values": [{"measurement": "aPLA binding to peptide- or domain-coated well", "setting": "[1]", "value": "involved in the binding of aPLA"}]}, {"molecule": "I7A: alanine scanning mutant of p1 (MISPVLALFSSFLCHVAIAG; listed as Homo sapiens)", "values": [{"measurement": "aPLA binding to peptide- or domain-coated well", "setting": "[1]", "value": "significantly decreased the binding of aPLA"}]}, {"molecule": "F12A: alanine scanning mutant of p1 (MISPVLILFSSALCHVAIAG; listed as Homo sapiens)", "values": [{"measurement": "aPLA binding to peptide- or domain-coated well", "setting": "[1]", "value": "significantly decreased the binding of aPLA"}]}, {"molecule": "p6: 20-mer peptide of β2GP1 domain I-II containing epitope R39-R43, SEQ ID NO:33 (CKPGYVSRGGMRKFICPLTG; listed as Homo sapiens)", "values": [{"measurement": "Inhibition of TNF production induced by aPLA", "setting": "[2]", "value": "diminished the production of TNF induced by aPLA"}, {"measurement": "aPLA binding to peptide- or domain-coated well", "setting": "[1]", "value": "interacted similarly with both peptides; also recorded: interact with aPLA"}]}, {"molecule": "p10: 20-mer overlapping peptide of β2GP1 domain I-II, SEQ ID NO:44 (ENGAVRYTTFEYPNTISFSC; listed as Homo sapiens)", "values": [{"measurement": "Inhibition of TNF production induced by aPLA", "setting": "[2]", "value": "had no effect"}]}, {"molecule": "p11: 20-mer overlapping peptide of β2GP1 domain I-II, SEQ ID NO:45 (EYPNTISFSCNTGFYLNGAD; listed as Homo sapiens)", "values": [{"measurement": "Inhibition of TNF production induced by aPLA", "setting": "[2]", "value": "had no effect"}]}, {"molecule": "MISPVLILFSSFLCHVAIAG [p1]", "values": [{"measurement": "CD4+ T cell proliferative response (CD4+CFSElow)", "setting": "[3]", "value": "significantly increased; also recorded: induced the proliferation of CD4^+ T cells"}, {"measurement": "CD4+ T cell proliferative response (CD4+CFSElow)", "setting": "[3]; listed as peptide 1", "value": "carries antigenic determinant for CD4^+ T cell proliferation"}, {"measurement": "Inhibition of TNF production induced by aPLA", "setting": "[2]", "value": "diminished the production of TNF induced by aPLA"}, {"measurement": "aPLA binding to peptide- or domain-coated well", "setting": "[1]", "value": "able to bind p1 (SEQ ID NO:32) as potently as p6; also recorded: interact with aPLA"}]}, {"molecule": "R58A: alanine scanning mutant of p6 (CKPGYVSAGGMRKFICPLTG; listed as Homo sapiens)", "values": [{"measurement": "aPLA binding to peptide- or domain-coated well", "setting": "[1]", "value": "involved in the binding of aPLA"}]}, {"molecule": "M61A: alanine scanning mutant of p6 (CKPGYVSRGGARKFICPLTG; listed as Homo sapiens)", "values": [{"measurement": "aPLA binding to peptide- or domain-coated well", "setting": "[1]", "value": "involved in the binding of aPLA"}]}, {"molecule": "R62A: alanine scanning mutant of p6 (CKPGYVSRGGMAKFICPLTG; listed as Homo sapiens)", "values": [{"measurement": "aPLA binding to peptide- or domain-coated well", "setting": "[1]", "value": "involved in the binding of aPLA"}]}, {"molecule": "C14A: alanine scanning mutant of p1 (MISPVLILFSSFLAHVAIAG; listed as Homo sapiens)", "values": [{"measurement": "aPLA binding to peptide- or domain-coated well", "setting": "[1]", "value": "significantly decreased the binding of aPLA"}]}, {"molecule": "S11A: alanine scanning mutant of p1 (MISPVLILFSAFLCHVAIAG; listed as Homo sapiens)", "values": [{"measurement": "aPLA binding to peptide- or domain-coated well", "setting": "[1]", "value": "significantly decreased the binding of aPLA"}]}, {"molecule": "G60A: alanine scanning mutant of p6 (CKPGYVSRGAMRKFICPLTG; listed as Homo sapiens)", "values": [{"measurement": "aPLA binding to peptide- or domain-coated well", "setting": "[1]", "value": "involved in the binding of aPLA"}]}, {"molecule": "B1", "values": [{"measurement": "CD4+ T cell proliferative response (CD4+CFSElow)", "setting": "[3]", "value": "induce proliferation of T cells"}, {"measurement": "CD4+ T cell proliferative response (CD4+CFSElow)", "setting": "[3]; listed as β2GP1-domain I-II", "value": "proliferative responses were detected"}, {"measurement": "Inhibition of TNF production induced by aPLA", "setting": "[2]", "value": "significantly decreased the production of TNF induced by aPLA"}, {"measurement": "aPLA binding to peptide- or domain-coated well", "setting": "[1]", "value": "binding of aPLA"}]}, {"molecule": "B2", "values": [{"measurement": "CD4+ T cell proliferative response (CD4+CFSElow)", "setting": "[3]", "value": "induce proliferation of T cells; also recorded: proliferative responses were detected"}, {"measurement": "Inhibition of TNF production induced by aPLA", "setting": "[2]", "value": "no effect on aPLA activity"}, {"measurement": "aPLA binding to peptide- or domain-coated well", "setting": "[1]", "value": "binding of aPLA"}]}, {"molecule": "B3", "values": [{"measurement": "CD4+ T cell proliferative response (CD4+CFSElow)", "setting": "[3]", "value": "unable to significantly stimulate T cell proliferation"}, {"measurement": "Inhibition of TNF production induced by aPLA", "setting": "[2]", "value": "no effect on aPLA activity"}, {"measurement": "aPLA binding to peptide- or domain-coated well", "setting": "[1]", "value": "binding of aPLA"}]}, {"molecule": "B4", "values": [{"measurement": "Inhibition of TNF production induced by aPLA", "setting": "[2]", "value": "significantly decreased the production of TNF induced by aPLA"}, {"measurement": "aPLA binding to peptide- or domain-coated well", "setting": "[1]", "value": "efficiently interacted with aPLA"}, {"measurement": "aPLA binding to peptide- or domain-coated well", "setting": "[1]; listed as domain III", "value": "binding of aPLA"}]}, {"molecule": "B5", "values": [{"measurement": "Inhibition of TNF production induced by aPLA", "setting": "[2]", "value": "significantly decreased the production of TNF induced by aPLA"}]}]}
